# Patent publication US4594340A, “25,26-dehydro-1α,24R-dihydroxycholecalciferol and 25,26-dehydro-1α,24S-dihydroxycholecalciferol and the epimeric mixture” (Hoffmann-La Roche Inc., priority 1984, dated 1986)
# What was measured:
# HL-60 cells [1] = assay: Differentiation of HL-60 cells by nitroblue tetrazolium (NBT) reduction; format: cell-based, human (patient)
# Protocol: (§1) Cultures of HL-60 cells were established in the absence (control) or presence of various concentrations of the test compound. […] Proliferation was assessed by directly enumerating the increased number of tumor cells resulting from incubation. Viability was determined by dye exclusion technique to learn whether any of the compounds were lethal to cultured HL-60 cells. Cellular differentiation was evaluated by determining the number of cells which had acquired the enzymes necessary to support a respiratory burst and the functional ability to phagocytose (bind/internalize) particulate material from their environment; both activities being characteristic of mature macrophages and granulocytes,
# (§2) Experimental compounds were dissolved in sufficient ethanol to yield stock solutions of 1×10^-2 molar. Reduced lighting was employed when working with compounds and stock solutions were stored in the dark at -20° in an argon atmosphere. Compounds were diluted with tissue culture medium and added to flasks containing HL-60 cells to achieve the final concentrations described in each experiment.
# (§3) The promyelocytic (HL-60) tumor cell line was derived from a patient with acute promyelocytic leukemia. HL-60 cells were maintained in liquid culture by serial weekly passage in tissue culture medium. In any experiment, three replicate flasks were incubated without compound (control) or in the presence of varying concentrations of compound. […]
# Quantitation of differentiated cells was done by the biochemical method of nitroblue tetrazolium (NBT) reduction. Sufficient cells were pooled from replicate cultures, centrifuged at 220×g, washed once with serum-free tissue culture medium, and resuspended to 1×10^6 cells per ml in Ca^++ --Mg^++ -deficient phosphate buffered saline (prepared by supplementing Ca^++ --Mg^++ -free phosphate buffered saline (PBS) to 10% v/v with heat-inactivated fetal bovine serum). Nitroblue tetrazolium was dissolved at 1 mg per ml in Ca^++ --Mg^++ -deficient PBS with gentle heating and mixing. Tetradecanoyl phorbol acetate (TPA) was dissolved at 1 mg per ml in ethanol and stored at -20° C. Just prior to use, a working solution of TPA was prepared by diluting the stock concentration 100-fold with Ca^++ --Mg^++ -deficient PBS. The test was done in 12×75 mm tubes by adding 0.5 ml Ca^++ --Mg^++ -deficient PBS, 1.0 ml of HL-60 cells, 0.5 ml of NBT solution, and 0.02 ml of the working TPA solution. After mixing, the tubes were incubated in a 37° water bath for 25 minutes then transferred to ice. Undifferentiated and differentiated cells present in any sample were determined microscopically by surveying 200-400 cells per sample or by cytofluorograph by surveying greater than 30,000 cells. Cells without pigmented granules (clear cells) were judged to be undifferentiated while those containing greater than 3 blue-black formazan granules were scored as differentiated. […] Results are expressed as the percentage of differentiated cells present in any sample as calculated according to the formula: [formula]
# HL-60 cells [2] = assay: Differentiation of HL-60 cells by phagocytosis; format: cell-based, human (patient)
# Protocol: as §1
# Tissure culture medium used in these experiments was RPM1-1640 supplemented prior to use to 10% v/v with fetal bovine serum (heat inactivated at 56° for 30 minutes), to 130 units per ml with penicillin and 130 μg per ml with streptomycin, and to an additional 1.6 millimolar with L-glutamine.
# as §2, §3
# Quantitation of differentiated HL-60 cells on a functional basis was done by enumerating the number of cells in any sample which had acquired the ability to phagocytose (bind/internalize) particulate material from their environment, a characteristic of mature macrophages and granulocytes. Sufficient cells were pooled from replicate cultures, centrifuged at 200×g, washed once with serum-free tissue culture medium, and resuspended to 1×10^6 cells per ml in serum-free tissue culture medium. To a 1.0 ml sample in 12×75 mm tubes was added 0.1 ml of a 1:10 dilution from stock of fluorescent microspheres obtained as a gift from Dr. William Dreyer at the California Institute of Technology. Latex beads, yeast cells or red blood cells may also be used in place of fluorescent microsphere in this step. Cells and particle were mixed, incubated for 15 minutes in a 37° water bath, collected in a transfer pipet, and overlayed onto a 5 ml cushion of fetal bovine serum in a 15 ml conical culture tube. After centrifugation at 150×g for 8 minutes, the excess particulate (upper layer) was discarded as was the remainder of the serum cushion leaving only a cell pellet and cell-associated particulate. The resultant pellets were resuspended in 1.0 ml of tissue culture medium containing 10% fetal bovine serum, transferred to a hemacytometer, and evaluated microscopically using both ultraviolet and visible light sources. Undifferentiated and differentiated cells present in any sample were determined microscopically by surveying 200-400 cells per sample. Non-fluorescent cells, identified only by visible light, were judged to be undifferentiated. Generally, differentiated cells were intensely fluorescent clearly indicating extensive phagocytosis of particulate material. Results are expressed as the percentage of differentiated cells present in any sample as calculated according to the formula: [formula]
# [3] = Antirachitogenic increase in tibia ash in chicks on vitamin D-deficient diet; format: in vivo, chick (White Leghorn cockerels)
# Protocol: **Oneday-old White Leghorn cockerels were placed on a vitamin Ddeficient
# diet which contained 1% calcium and 0.7% phosphorus and were housed under
# ultravioletfree lighting (General Electric F40G0 gold fluorescent lights)
# The test compound was dissolved in propylene glycol and administered
# orally in a volume of 0.2 ml/day for 21 consecutive days. Controls were
# treated with vehicle alone. Chicks were autopsied on the day after the […]
compound,measurement,setting,value
"C=C(C)[C@H](O)CC[C@@H](C)[C@H]1CC[C@H]2/C(=C/C=C3/C[C@@H](O)C[C@H](O)C3=C)CCC[C@]12C [25,26-dehydro-1α,24R-dihydroxycholecalciferol]",induction of cellular differentiation (NBT reduction),"HL-60 cells [1]; 5, 15, 45 or 90×10^-9 molar, all incubation times",increasing proportions of differentiated cells at all incubation times
same,% diff. (NBT reduction),"HL-60 cells [1]; 5 × 10^-9 molar, day 3",5%
same,diff. cells / total (NBT reduction),"HL-60 cells [1]; 5 × 10^-9 molar, day 3",2443/44545
same,% diff. (NBT reduction),"HL-60 cells [1]; 5 × 10^-9 molar, day 4",8%
same,diff. cells / total (NBT reduction),"HL-60 cells [1]; 5 × 10^-9 molar, day 4",3401/42923
same,% diff. (NBT reduction),"HL-60 cells [1]; 5 × 10^-9 molar, day 6",7%
same,diff. cells / total (NBT reduction),"HL-60 cells [1]; 5 × 10^-9 molar, day 6",3179/47638
same,% diff. (NBT reduction),"HL-60 cells [1]; 15 × 10^-9 molar, day 3",22%
same,diff. cells / total (NBT reduction),"HL-60 cells [1]; 15 × 10^-9 molar, day 3",8971/40398
same,% diff. (NBT reduction),"HL-60 cells [1]; 15 × 10^-9 molar, day 4",23%
same,diff. cells / total (NBT reduction),"HL-60 cells [1]; 15 × 10^-9 molar, day 4",9489/40666
same,% diff. (NBT reduction),"HL-60 cells [1]; 15 × 10^-9 molar, day 6",17%
same,diff. cells / total (NBT reduction),"HL-60 cells [1]; 15 × 10^-9 molar, day 6",8167/47032
same,% diff. (NBT reduction),"HL-60 cells [1]; 45 × 10^-9 molar, day 3",49%
same,diff. cells / total (NBT reduction),"HL-60 cells [1]; 45 × 10^-9 molar, day 3",14932/30509
same,% diff. (NBT reduction),"HL-60 cells [1]; 45 × 10^-9 molar, day 4",60%
same,diff. cells / total (NBT reduction),"HL-60 cells [1]; 45 × 10^-9 molar, day 4",20003/33311
same,% diff. (NBT reduction),"HL-60 cells [1]; 45 × 10^-9 molar, day 6",63%
same,diff. cells / total (NBT reduction),"HL-60 cells [1]; 45 × 10^-9 molar, day 6",22787/36263
same,% diff. (NBT reduction),"HL-60 cells [1]; 90 × 10^-9 molar, day 3",62%
same,diff. cells / total (NBT reduction),"HL-60 cells [1]; 90 × 10^-9 molar, day 3",29458/47866
same,% diff. (NBT reduction),"HL-60 cells [1]; 90 × 10^-9 molar, day 4",73%
same,diff. cells / total (NBT reduction),"HL-60 cells [1]; 90 × 10^-9 molar, day 4",30230/41142
same,% diff. (NBT reduction),"HL-60 cells [1]; 90 × 10^-9 molar, day 6",79%
same,diff. cells / total (NBT reduction),"HL-60 cells [1]; 90 × 10^-9 molar, day 6",35708/45388
same,EC50,"HL-60 cells [1]; Homo sapiens, 96 h, HL-60 cells, NBT test, read-out: HL-60 Test Differentiation NBT Test ED50",30 nM
same,induction of cellular differentiation,"HL-60 cells [1]; compared with 1α,25-dihydroxycholecalciferol",induced cellular differentiation in a dose dependent fashion
same,"potency relative to 1α,25-dihydroxycholecalciferol (cellular differentiation)","HL-60 cells [1]; of that of 1α,25-dihydroxycholecalciferol",40%
same,% diff. (Phagocytosis),"HL-60 cells [2]; 5 × 10^-9 molar, day 3",7%
same,diff. cells / total (Phagocytosis),"HL-60 cells [2]; 5 × 10^-9 molar, day 3",24/329
same,% diff. (Phagocytosis),"HL-60 cells [2]; 5 × 10^-9 molar, day 4",10%
same,diff. cells / total (Phagocytosis),"HL-60 cells [2]; 5 × 10^-9 molar, day 4",22/223
same,% diff. (Phagocytosis),"HL-60 cells [2]; 5 × 10^-9 molar, day 6",16%
same,diff. cells / total (Phagocytosis),"HL-60 cells [2]; 5 × 10^-9 molar, day 6",45/290
same,% diff. (Phagocytosis),"HL-60 cells [2]; 15 × 10^-9 molar, day 3",24%
same,diff. cells / total (Phagocytosis),"HL-60 cells [2]; 15 × 10^-9 molar, day 3",76/324
same,% diff. (Phagocytosis),"HL-60 cells [2]; 15 × 10^-9 molar, day 4",29%
same,diff. cells / total (Phagocytosis),"HL-60 cells [2]; 15 × 10^-9 molar, day 4",96/332
same,% diff. (Phagocytosis),"HL-60 cells [2]; 15 × 10^-9 molar, day 6",25%
same,diff. cells / total (Phagocytosis),"HL-60 cells [2]; 15 × 10^-9 molar, day 6",83/333
same,% diff. (Phagocytosis),"HL-60 cells [2]; 45 × 10^-9 molar, day 3",53%
same,diff. cells / total (Phagocytosis),"HL-60 cells [2]; 45 × 10^-9 molar, day 3",174/329
same,% diff. (Phagocytosis),"HL-60 cells [2]; 45 × 10^-9 molar, day 4",70%
same,diff. cells / total (Phagocytosis),"HL-60 cells [2]; 45 × 10^-9 molar, day 4",206/296
same,% diff. (Phagocytosis),"HL-60 cells [2]; 45 × 10^-9 molar, day 6",79%
same,diff. cells / total (Phagocytosis),"HL-60 cells [2]; 45 × 10^-9 molar, day 6",176/223
same,% diff. (Phagocytosis),"HL-60 cells [2]; 90 × 10^-9 molar, day 3",69%
same,diff. cells / total (Phagocytosis),"HL-60 cells [2]; 90 × 10^-9 molar, day 3",181/261
same,% diff. (Phagocytosis),"HL-60 cells [2]; 90 × 10^-9 molar, day 4",86%
same,diff. cells / total (Phagocytosis),"HL-60 cells [2]; 90 × 10^-9 molar, day 4",219/255
same,% diff. (Phagocytosis),"HL-60 cells [2]; 90 × 10^-9 molar, day 6",96%
same,diff. cells / total (Phagocytosis),"HL-60 cells [2]; 90 × 10^-9 molar, day 6",200/218
same,cells capable of phagocytosis,HL-60 cells [2]; compared with control cultures,dose-related increase in the proportion of cells capable of phagocytosis
same,Antirachitogenic Increase in Tibia Ash in Chicks,"[3]; 300 ng, orally, 21 consecutive days",20%
same,potential for hypercalcemia,"[3]; than for 1α,25-dihydroxycholecalciferol, as indicated by increase in tibia ash weight in chicks",much less
